Source: US12635686B2, “Compositions and methods for imposing seed quality” (priority 2014, dated 2026)

Columns and labels:
Format in all cases: in vivo
[1] = test system: Inbred Seed Corn; assay: Saturated cold (super cold) germination test of harvested seed; conditions: for SUPER COLD, sum: sum of the four size/shape categories
Description: (§1) Seed quality can be evaluated by germination tests, such as warm germination, cold germination, and saturated cold germination. These types of tests are commonly used to predict seed germination and emergence. Among these tests, the saturated cold germination test exposes the seeds to cold, wet, and oxygen deficient stress, and is thus considered probative of seed germination viability over a range of field conditions.
The term “seed vigor” refers to a measure of the quality of a seed assemblage based on certain properties, such as percent germination, which can predict seed germination and emergence under a wide range of field conditions, particularly stress conditions. The methodology of the present disclosure can be followed to produce a seed assemblage that is characterized by enhanced seed vigor, as determined by seed vigor testing. […] One such technique is known as the saturated cold germination test. According to the Seed Vigor Testing Handbook by the Association of Official Seed Analysts (2009), the saturated cold germination test is the most stressful of various cold-test procedures for determining the vigor of a seed assemblage. In this test, the soil or planting medium is maintained at 100% water holding capacity for the duration of the test, which also subjects seeds to sub-optimal temperatures and soil-borne pathogens. These conditions evaluate seeds based on their response to three stress factors: imbibitional chilling injury, attack by soil-borne pathogens, and limited oxygen availability. These harsh conditions can allow testers to discriminate between seed assemblages differing in vigor, and thus the saturated cold germination test can act as a good indicator of seed quality for many crops. […]
(§2) • Crop: Inbred Seed Corn • Variety: D2905VT3P • Plot Location: New Haven, WI • Season/Year: Summer/2014 • Corn Stage at Application: to Full Dent • Moisture at Application: 44% • Application Equipment: Case Patriot Sprayer • Application Conditions: Temperature: 88-90° F. • Sky: Clear • Wind: 2-3 mph • Application Diluent: Water • Application Volume: 20 gallons per acre • Number of full days between application and harvest: 10 days • Post Harvest Seed Treatment: CruiserMaxx® Corn 250 Test Plot Treatments: • Plot 1—Untreated Check • Plot Size: Balance of Field • Plot 2—Treatment A • Defol® 5: 4.8 quarts per acre • Sodium cyanate: 6.4 grams per acre • Water: 75.2 quarts per acre • Plot Size: 16 acres • Plot 3—Defol® 750 Treatment Check • Defol® 750: 3.2 quarts per acre • Water: 76.8 quarts per acre • Plot Size: 16 acres • Plot 4—Treatment B • Sodium cyanate: 6.4 grams per acre • Water: 80 quarts per acre • Plot Size: 16 acres
(§3) Samples of corn seed from each of the three test plots were evaluated for desirable/saleable seed size and shape, as well as germination under certain test conditions: warm germination, cold germination and saturated cold germination. Each of the four evaluated categories (i.e., 24/21 Round, 21/16 Round, 24/21 Flat, 21/16 Flat) constituted desirable and saleable seed size and shape. The results were as follows: […]

[2] = test system: Inbred Seed Corn; assay: Warm germination test of harvested seed; conditions: for WARM GERM, sum: sum of the four size/shape categories
Description: as §1, with “conditions. […]” for “conditions.”
as §2
(§4) Samples of corn seed from each of the three test plots were evaluated for desirable/saleable seed size and shape, as well as germination under certain test conditions: warm germination, cold germination and saturated cold germination. Each of the four evaluated categories (i.e., 24/21 Round, 21/16 Round, 24/21 Flat, 21/16 Flat) constituted desirable and saleable seed size and shape. The results were as follows:
as §2, with “D3910VT2P” for “D2905VT3P”, “Springville,” for “New Haven,”, “Very early start of dent” for “to Full Dent”, “50-55%” for “44%”, “17” for “10”
as §4, with “25/20” for “24/21”, “20/16” for “21/16”, “shape.” for “shape. The results were as follows:”

[3] = test system: Inbred Seed Corn; assay: Cold germination test of harvested seed; conditions: for COLD GERM, sum: sum of the four size/shape categories
Description: as §1, with “conditions. […]” for “conditions.”
as §2, §4
as §2, with “D3910VT2P” for “D2905VT3P”, “Springville,” for “New Haven,”, “Very early start of dent” for “to Full Dent”, “50-55%” for “44%”, “17” for “10”
as §4, with “25/20” for “24/21”, “20/16” for “21/16”, “shape.” for “shape. The results were as follows:”

[4] = test system: Inbred Seed Corn; assay: Seed size and shape evaluation of seed from treated field plots (estimated units, bag weight, proportions); conditions: for % RDS: rounds as share of all units; for ABOVE 25: seed above size 25; for BELOW 17: seed below size 17; for EST. UNITS, total: sum of the four size/shape categories
Description: In an actively growing seed corn field scheduled to be treated with Drexel Defol® 750, four test plots were evaluated. Two plots were treated with Drexel Defol® 5, a sodium chlorate formulation containing 5 pounds of active sodium chlorate per gallon, and with varying amounts of cyanate anions. Sodium cyanate salt was used as the source of cyanate for its compatibility with sodium chlorate. The results of these two treatments were compared to an untreated check and a plot treated with Defol® 750, which contained 7.5 pounds of active sodium chlorate per gallon. The amount of active sodium chlorate applied in the three treated plots was equivalent.
• Crop: Inbred Seed Corn • Variety: A0036RMQKZ×HCL4011 • Plot Sizes: 5 acres for Plots 1-3; 7 acres for Plot 4 • Plot Location: Near Oxford, WI • Season/Year: Summer/2013 • Corn Stage: Full Dent • Application Equipment: Case Patriot Sprayer • Application Conditions: Temperature: 86° F. • Sky: Sunny • Wind: 4 mph • Application Diluent: Water • Application Volume: 20 gallons per acre • Number of full days between application and harvest: 24 days • Post Harvest Seed • Treatment: CruiserMaxx® Corn 250 Test Plot Treatments: • Plot 1—Untreated Check • Plot Size: 5 acres • Plot 2—Treatment A • Defol® 5: 4.8 quarts per acre • Sodium cyanate: 6.4 grams per acre • Water: 75.2 quarts per acre • Plot Size: 5 acres • Plot 3—Treatment B • Defol® 5: 4.8 quarts per acre • Sodium cyanate: 15.9 grams per acre • Water: 75.2 quarts per acre • Plot size: 5 acres • Plot 4—Defol® 750 Treatment Check • Defol® 750: 3.2 quarts per acre • Water: 76.8 quarts per acre • Plot size: 7 acres
Samples of corn seed from each of the four test plots were evaluated for seed size, shape, as well as germination under certain test conditions: warm germination, cold germination and saturated cold germination. Each of the four evaluated categories (i.e., 26/21 Round, 21/17 Round, 26/21 Flat, 21/17 Flat) constituted desirable and saleable seed size and shape. Evaluation was performed at Biodiagnostics, Inc., River Falls, WI. The results were as follows:
as §2, with “D2507VT3P” for “D2905VT3P”, “Jackson,” for “New Haven,”, “42%” for “44%”, “8” for “10”, “acres” for “acres • Plot 4—Treatment B • Sodium cyanate: 6.4 grams per acre • Water: 80 quarts per acre • Plot Size: 16 acres”
as §3, with “21/17” for “21/16”

[5] = Example 2 Hybrid 2 (D2905VT3P, 2014), seed size 21/16F
[6] = Example 2 Hybrid 2 (D2905VT3P, 2014), seed size 21/16R
[7] = Example 2 Hybrid 2 (D2905VT3P, 2014), seed size 24/21F
[8] = Example 2 Hybrid 2 (D2905VT3P, 2014), seed size 24/21R
[9] = Example 2 Hybrid 3 (D3910VT2P, 2014), seed size 20/16F
[10] = Example 2 Hybrid 3 (D3910VT2P, 2014), seed size 20/16R
[11] = Example 2 Hybrid 3 (D3910VT2P, 2014), seed size 25/20F
[12] = Example 2 Hybrid 3 (D3910VT2P, 2014), seed size 25/20R
[13] = Example 2 Hybrid 2, column headed GRAMS in the 8th table
[14] = Example 2 Hybrid 3, column headed GRAMS in the 12th table

## N#CO [Cyanate, Sodium cyanate]
[1]; Example 2, over the Untreated Checks, particularly Hybrid 3
  seed vigor based on the super cold germination percentage: increased seed vigor
[1]; [5]
  SUPER COLD: 95%
[1]; [6]
  SUPER COLD: 92%
[1]; [7]
  SUPER COLD: 97%
[1]; [8]
  SUPER COLD: 99%
[1]; Example 2 Hybrid 2
  SUPER COLD, sum: 383%
[1]; [9]
  SUPER COLD: 90%
[1]; [10]
  SUPER COLD: 92%
[1]; [11]
  SUPER COLD: 95%
[1]; [12]
  SUPER COLD: 95%
[1]; Example 2 Hybrid 3
  SUPER COLD, sum: 372%
[2]; [5]
  WARM GERM: 96%
[2]; [6]
  WARM GERM: 96%
[2]; [7]
  WARM GERM: 99%
[2]; [8]
  WARM GERM: 98%
[2]; Example 2 Hybrid 2
  WARM GERM, sum: 389%
[2]; [9]
  WARM GERM: 98%
[2]; [10]
  WARM GERM: 96%
[2]; [11]
  WARM GERM: 99%
[2]; [12]
  WARM GERM: 99%
[2]; Example 2 Hybrid 3
  WARM GERM, sum: 392%
[3]; [5]
  COLD GERM: 98%
[3]; [6]
  COLD GERM: 96%
[3]; [7]
  COLD GERM: 99%
[3]; [8]
  COLD GERM: 96%
[3]; Example 2 Hybrid 2
  COLD GERM, sum: 389%
[3]; [9]
  COLD GERM: 95%
[3]; [10]
  COLD GERM: 95%
[3]; [11]
  COLD GERM: 96%
[3]; [12]
  COLD GERM: 97%
[3]; Example 2 Hybrid 3
  COLD GERM, sum: 383%
[4]; [5]
  EST. BAG WT.: 40.5 lbs
  EST. UNITS: 198
[4]; [6]
  EST. BAG WT.: 45.7 lbs
  EST. UNITS: 392
[4]; [7]
  EST. BAG WT.: 51.6 lbs
  EST. UNITS: 180
[4]; [8]
  EST. BAG WT.: 60.5 lbs
  EST. UNITS: 253
[4]; Example 2 Hybrid 2, 21/16F units as share of 24/21F and 21/16F
  % SF OF ALL FL: 52.38%
[4]; Example 2 Hybrid 2, 21/16R units as share of 24/21R and 21/16R
  % SR OF ALL RDS: 60.78%
[4]; Example 2 Hybrid 2
  % RDS: 63.05%
  EST. UNITS, total: 1023
[4]; [13]
  ABOVE 25: 5
  BELOW 17: 21
[4]; Example 2 Hybrid 2 and Hybrid 3, compared to the Untreated Checks
  yields and proportions of seed at desirable and saleable sizes and shapes: higher yields and proportions
[4]; [9]
  EST. BAG WT.: 40.1 lbs
  EST. UNITS: 232
[4]; [10]
  EST. BAG WT.: 42.7 lbs
  EST. UNITS: 218
[4]; [11]
  EST. BAG WT.: 50.6 lbs
  EST. UNITS: 361
[4]; [12]
  EST. BAG WT.: 57 lbs
  EST. UNITS: 234
[4]; Example 2 Hybrid 3, 20/16F units as share of 25/20F and 20/16F
  % SF OF ALL FL: 39.12%
[4]; Example 2 Hybrid 3, 20/16R units as share of 25/20R and 20/16R
  % SR OF ALL RDS: 48.23%
[4]; Example 2 Hybrid 3
  % RDS: 43.25%
  EST. UNITS, total: 1045
[4]; [14]
  ABOVE 25: 4
  BELOW 17: 23
[4]; Examples 1 and 2, compared to the Untreated Check
  bag weight, in words: more desirable bag weights
